Active and inactive are the calls of the source.
Key:
[1] = P. falciparum Dd2 growth inhibitors, dose response, SYBR Green, cherry-picked samples (AID 1159567); assay type: functional, cell-based
[2] = growth inhibition of PfATP4-mutant resistant parasites – NITD609-resistant line, SYBR Green, dry powder, dose response (AID 1159571); assay type: functional, cell-based;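 further: parasites synchronized at ring stage by sorbitol before testing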
[3] = toxicity to human HepG2 hepatoma cells – cell-based, plate reader, dry powder samples, cytotoxicity control, dose response (AID 1159569); assay type: functional;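 further: inhibitor potency with signal falling toward the positive control level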
[4] = Dd2 malaria parasite growth inhibition potency – SYBR Green, dry powder samples, dose response (AID 1159566); assay type: functional, cell-based;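 further: potency for growth inhibition with lower SYBR green DNA signal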
[5] = growth inhibition of yeast DHODH-expressing 3D7 parasites – SYBR Green, dry powder samples, dose response (AID 1159570); assay type: functional, cell-based;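 further: parasite growth measured after 72 hours of compound exposure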
[6] = target: T1, 1-phosphatidylinositol 4,5-bisphosphate phosphodiesterase gamma-1 (Homo sapiens, UniProt P19174); test: Counterscreen for inhibitors of phospholipase C isozymes (PLC-B3): Fluorescence-based biochemical high throughput dose response assay to identify inhibitors of phospholipase C isozymes (PLC-gamma1).
T1 sequence (P19174 whole entry): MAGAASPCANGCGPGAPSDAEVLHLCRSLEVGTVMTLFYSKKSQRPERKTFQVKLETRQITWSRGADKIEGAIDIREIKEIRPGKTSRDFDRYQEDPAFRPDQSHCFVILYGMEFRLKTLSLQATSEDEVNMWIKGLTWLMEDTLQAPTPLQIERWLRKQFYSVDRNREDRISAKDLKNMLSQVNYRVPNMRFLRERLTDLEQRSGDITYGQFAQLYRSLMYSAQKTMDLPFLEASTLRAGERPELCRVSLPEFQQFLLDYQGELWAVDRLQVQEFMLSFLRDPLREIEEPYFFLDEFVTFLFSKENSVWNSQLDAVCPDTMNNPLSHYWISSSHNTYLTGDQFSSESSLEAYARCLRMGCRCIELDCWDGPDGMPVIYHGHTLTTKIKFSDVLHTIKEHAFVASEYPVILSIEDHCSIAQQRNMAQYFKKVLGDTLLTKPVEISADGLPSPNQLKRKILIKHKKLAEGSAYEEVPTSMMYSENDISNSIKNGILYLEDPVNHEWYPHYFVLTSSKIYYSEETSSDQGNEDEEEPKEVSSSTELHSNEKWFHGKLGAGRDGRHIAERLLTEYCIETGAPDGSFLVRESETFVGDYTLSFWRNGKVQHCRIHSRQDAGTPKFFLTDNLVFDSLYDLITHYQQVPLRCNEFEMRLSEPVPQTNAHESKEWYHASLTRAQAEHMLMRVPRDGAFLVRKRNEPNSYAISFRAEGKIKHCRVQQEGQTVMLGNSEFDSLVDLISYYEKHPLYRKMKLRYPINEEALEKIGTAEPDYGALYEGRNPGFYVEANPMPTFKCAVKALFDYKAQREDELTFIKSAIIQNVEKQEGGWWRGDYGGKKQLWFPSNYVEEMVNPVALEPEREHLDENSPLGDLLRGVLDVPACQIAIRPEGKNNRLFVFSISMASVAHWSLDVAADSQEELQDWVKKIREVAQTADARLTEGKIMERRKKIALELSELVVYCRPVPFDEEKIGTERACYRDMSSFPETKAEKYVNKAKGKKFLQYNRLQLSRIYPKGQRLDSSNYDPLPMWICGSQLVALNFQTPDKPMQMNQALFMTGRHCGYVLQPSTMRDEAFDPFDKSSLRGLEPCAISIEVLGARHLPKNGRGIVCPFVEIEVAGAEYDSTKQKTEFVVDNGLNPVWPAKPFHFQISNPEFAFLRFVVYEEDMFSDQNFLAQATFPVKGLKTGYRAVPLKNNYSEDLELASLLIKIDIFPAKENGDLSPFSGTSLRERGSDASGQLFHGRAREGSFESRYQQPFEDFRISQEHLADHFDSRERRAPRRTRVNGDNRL

[7] = target: T2, 1-phosphatidylinositol 4,5-bisphosphate phosphodiesterase beta-3 (Homo sapiens, UniProt Q01970); test: Fluorescence-based biochemical high throughput dose response assay to identify inhibitors of phospholipase C isozymes (PLC-B3).
T2 sequence (Q01970 whole entry): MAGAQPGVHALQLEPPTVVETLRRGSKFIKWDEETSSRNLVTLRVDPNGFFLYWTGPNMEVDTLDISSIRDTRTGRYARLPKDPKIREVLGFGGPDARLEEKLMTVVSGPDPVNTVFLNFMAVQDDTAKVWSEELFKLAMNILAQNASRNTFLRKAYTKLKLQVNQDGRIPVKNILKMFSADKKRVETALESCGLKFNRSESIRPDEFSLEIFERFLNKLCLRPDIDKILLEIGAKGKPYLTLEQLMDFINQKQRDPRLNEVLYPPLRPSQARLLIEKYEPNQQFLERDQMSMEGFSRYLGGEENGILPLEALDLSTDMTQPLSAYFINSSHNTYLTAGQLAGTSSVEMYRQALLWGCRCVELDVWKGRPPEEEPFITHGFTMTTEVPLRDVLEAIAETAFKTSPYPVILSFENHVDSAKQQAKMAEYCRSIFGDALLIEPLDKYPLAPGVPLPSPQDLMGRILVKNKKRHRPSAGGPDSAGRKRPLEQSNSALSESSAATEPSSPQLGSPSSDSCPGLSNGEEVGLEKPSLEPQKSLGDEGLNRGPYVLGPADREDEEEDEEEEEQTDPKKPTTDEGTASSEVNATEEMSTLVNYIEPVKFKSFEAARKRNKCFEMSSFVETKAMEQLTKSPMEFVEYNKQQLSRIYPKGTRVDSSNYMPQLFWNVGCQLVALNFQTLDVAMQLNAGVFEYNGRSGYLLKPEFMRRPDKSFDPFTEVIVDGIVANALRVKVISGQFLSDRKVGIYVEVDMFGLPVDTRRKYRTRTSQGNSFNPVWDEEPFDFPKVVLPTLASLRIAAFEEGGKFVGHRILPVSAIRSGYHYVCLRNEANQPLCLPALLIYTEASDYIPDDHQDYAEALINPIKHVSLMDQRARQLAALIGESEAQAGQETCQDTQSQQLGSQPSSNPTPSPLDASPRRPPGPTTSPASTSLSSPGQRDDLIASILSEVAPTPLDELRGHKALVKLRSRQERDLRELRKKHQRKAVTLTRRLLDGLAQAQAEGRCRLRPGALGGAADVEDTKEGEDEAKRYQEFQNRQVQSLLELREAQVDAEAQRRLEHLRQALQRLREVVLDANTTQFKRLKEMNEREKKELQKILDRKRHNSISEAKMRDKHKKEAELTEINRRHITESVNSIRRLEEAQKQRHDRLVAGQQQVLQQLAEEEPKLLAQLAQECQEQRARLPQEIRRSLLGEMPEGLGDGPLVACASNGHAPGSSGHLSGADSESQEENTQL

[8] = blockade of melanocortin 4 receptor signaling – cell-based, plate reader, cherry pick, counter-screen for LGR2 antagonist project, dose response (AID 743444); assay type: functional;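 further: transfected HEK 293 cells stimulated with alpha-MSH peptide; potency of inhibitors of the alpha-MSH evoked signal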
[9] = viability loss in HEK293 cells – cell-based, plate reader, cherry-picked samples, cytotoxicity control, dose response (AID 743446); assay type: functional
[10] = blockers of bursicon-stimulated LGR2 cAMP reporter – cell-based, HEK293, CRE-luciferase reporter, cherry pick, set 2, dose response (AID 743343); assay type: functional;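 further: transfected cells were stimulated with diluted bursicon conditioned medium after compound addition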
[11] = toxicity toward HepG2 liver cells – cell-based, plate reader, cherry-pick, antagonist series, cytotoxicity control, dose response (AID 743416); assay type: functional
[12] = A549 cell cytotoxicity, dose response, cytotoxicity control, plate reader, cherry-pick, antagonist series (AID 743412); assay type: functional, cell-based
[13] = toxicity to human hepatoma HepG2 cells – cell-based, cherry-picked samples, cytotoxicity control, dose response (AID 1159577); assay type: functional
H9c2 = test: cells; assay type: functional, cell-based; conditions: Rattus norvegicus, H9c2, Myocardium;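 further: confirmatory concentration-response retest of ultra-high-throughput screening hits for modulation of myocardial damage; cell death induced by hydrogen peroxide oxidative stress; compound pretreatment for 60 min then peroxide exposure for 2 h; potency is for protecting the cells against peroxide damage rather than for killing them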
[14] = target: Eukaryotic translation initiation factor 4E (Mus musculus, UniProt P63073); test: blockers of eIF4G binding by eIF4E – biochemical, TR-FRET, dose response (AID 855); assay type: functional;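 further: potency for disrupting eIF4E binding to eIF4GI seen as loss of FRET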
Eukaryotic translation initiation factor 4E, sequence (P63073 whole entry): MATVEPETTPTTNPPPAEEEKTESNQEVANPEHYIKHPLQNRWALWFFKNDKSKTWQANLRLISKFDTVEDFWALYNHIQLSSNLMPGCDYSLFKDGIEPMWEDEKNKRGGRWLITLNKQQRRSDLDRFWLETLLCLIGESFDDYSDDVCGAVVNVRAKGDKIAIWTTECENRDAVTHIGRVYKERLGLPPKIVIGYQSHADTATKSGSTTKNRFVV

Large T antigen = Large T antigen (Simian virus 40, UniProt P03070); assay type: functional, Betapolyomavirus macacae;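 further: Confirmatory-stage PubChem screen for compounds that inhibit SV40 T antigen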
Large T antigen, sequence (P03070 whole entry): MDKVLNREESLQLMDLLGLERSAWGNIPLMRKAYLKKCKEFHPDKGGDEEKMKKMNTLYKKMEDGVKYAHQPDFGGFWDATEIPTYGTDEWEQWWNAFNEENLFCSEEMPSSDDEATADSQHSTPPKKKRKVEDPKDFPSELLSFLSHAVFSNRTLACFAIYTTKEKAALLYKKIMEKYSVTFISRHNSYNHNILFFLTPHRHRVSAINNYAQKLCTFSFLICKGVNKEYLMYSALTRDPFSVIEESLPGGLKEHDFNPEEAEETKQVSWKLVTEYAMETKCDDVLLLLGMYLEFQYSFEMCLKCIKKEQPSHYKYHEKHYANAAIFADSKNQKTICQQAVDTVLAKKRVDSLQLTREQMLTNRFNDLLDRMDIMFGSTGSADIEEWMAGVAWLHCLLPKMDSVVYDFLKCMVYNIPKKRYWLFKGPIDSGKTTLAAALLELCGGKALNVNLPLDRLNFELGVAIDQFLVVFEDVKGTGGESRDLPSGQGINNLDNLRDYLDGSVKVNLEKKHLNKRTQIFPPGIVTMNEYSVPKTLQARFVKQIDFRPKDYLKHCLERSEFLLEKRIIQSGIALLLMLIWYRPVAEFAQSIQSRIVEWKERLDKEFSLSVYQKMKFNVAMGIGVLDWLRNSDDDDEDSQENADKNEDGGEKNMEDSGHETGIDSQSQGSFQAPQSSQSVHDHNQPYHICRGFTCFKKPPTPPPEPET

[15] = Dd2 parasite growth inhibition in erythrocytes – SYBR Green, dry powder samples, set 9, dose response (AID 1159568); assay type: functional, cell-based

Compound	AC50 [1]	AC50 [2]	AC50 [3]	AC50 [4]	AC50 [5]	AC50 [13]	also measured
COc1ccccc1-c1ccc2c(c1)[C@@H]1[C@@H](CCN1C(=O)C1CCCCC1)[C@@H](CO)N2	1.74 µM (active)	0.498 µM (active)	11.1 µM (active)	0.283 µM (active)	0.488 µM (active)		
C/N=C1/SC(CC(=O)NCCc2ccc(OC)c(OC)c2)C(=O)N1C (configuration not stated)							IC50 [6]: > 122 µM (inactive); IC50 [7]: > 122 µM (inactive)
COc1ccc(-c2coc3c(C(=O)Nc4cc(OC)c(OC)c(OC)c4)cccc23)c(C)c1							AC50 [8]: 0.905 µM (active); AC50 [9]: 15.3 µM (active); AC50 [10]: 1.2 µM (active); AC50 [11]: 18.3 µM (active); AC50 [12]: 9.94 µM (active)
O=C(Nc1ccc(F)cc1)N1CCCCN2[C@@H](CO)[C@H](c3ccc(C#Cc4ccccc4)cc3)[C@@H]2C1	< 0.3 µM (active)					7.42 µM (active)	
CCCc1cn(CC[C@@H]2CC[C@@H](NS(=O)(=O)c3ccc(-c4ccccc4)cc3)[C@@H](CO)O2)nn1	1.45 µM (active)	0.949 µM (active)	33.6 µM (active)	0.698 µM (active)	1.6 µM (active)	> 39 µM (inactive)	
CCCC#Cc1ccc2c(c1)O[C@@H](CN(C)Cc1ccncc1)[C@H](C)CN([C@@H](C)CO)S2(=O)=O	3.85 µM (active)					> 39 µM (inactive)	
O=C(COC(=O)c1ccccc1C(=O)OCC(=O)NCCc1c[nH]c2ccccc12)NCCc1c[nH]c2ccccc12							IC50 (H9c2): > 79 µM (inactive); IC50 [6]: > 123 µM (inactive); IC50 [7]: > 123 µM (inactive)
CCNc1nc(NC(C)C)nc(Oc2ccc(OCCOc3ccccc3)nn2)n1							IC50 [14]: > 64 µM (inactive)
O=C1NC(=S)S/C1=C\c1ccc(SCc2ccccc2)o1							IC50 (Large T antigen): > 100 µM (active); IC50 [6]: > 122 µM (inactive); IC50 [7]: > 122 µM (inactive)
COc1ccc(-c2nc(-c3ccccc3)no2)c(OC)c1							AC50 [8]: 1.05 µM (active); AC50 [9]: 31.9 µM (active); AC50 [10]: 0.621 µM (active); AC50 [11]: 47.6 µM (active); AC50 [12]: 28.4 µM (active)
OC[C@@H]1[C@H](c2ccc(-c3ccc(F)cc3)cc2)[C@@H](CNC2CCCC2)N1CCC(F)(F)F	0.401 µM (active)	0.241 µM (active)	21.1 µM (active)	0.113 µM (active)	0.259 µM (active)	> 39 µM (inactive)	AC50 [15]: 0.491 µM (active)
COc1ccccc1S(=O)(=O)N(C)C[C@@H]1Oc2cc(/C=C/c3ccccc3)ccc2S(=O)(=O)N([C@H](C)CO)C[C@H]1C	0.459 µM (active)	0.215 µM (active)	81.6 µM (active)	0.22 µM (active)	0.466 µM (active)		AC50 [15]: 0.443 µM (active)

— ChEMBL document CHEMBL1201862, “PubChem BioAssay data set” (2004)
